# Like-named read-outs stand apart in the source and are kept apart here.
# Key:
# cancer cell lines = test: Cytotoxicity in a wide variety of cancer cell types (TC50, CellTiter-Glo, 72 or 96 hours); settings: read-out: TC50
# Protocol: Exponentially growing cells were plated in fresh growth media in a 96-well black, flat, clear-bottomed polystyrene microtiter plate (Packard View Plate 6005182). Twenty-four hours later, compounds were added from serial dilutions prepared in DMSO from 50 mM DMSO stock solutions. Each concentration of inhibitor was tested in duplicate at a final DMSO concentration of 0.4%. After 72 or 96 hours incubation, cell viability was quantified by measuring intracellular ATP levels using CellTiter-Glo (Promega). Luminescence data was collected on a TopCount NXT plate reader (PerkinElmer). Experimental values were normalized to solvent controls and plotted versus compound concentration to determine the concentration required for a 50% reduction in cell viability.
# [1] = system: Cancer cell lines (SCLC, glioma, colon cancer and others)
# Protocol: Experiments were conducted in HCT116 cells. […] For compound combination analyses, the MacSynergy™ II protocol and program were utilized, following the recommendations of the developers (Prichard and Shipman, 1990). Prior to combinations of compounds, dose curves of cells treated with a single compound were generated to define relevant compound doses to use in the combination analysis. Typically, relevant doses were those found in the inflection portion of a sigmoidal dose-response curve. Utilizing these optimized conditions, cells were dosed with Nampt inhibitor plus the test compound at a variety of concentrations of each, and viability was assessed using CellTiter-Glo. Data was processed using the MacSynergy™ II algorithm, which subtracted from actual data a prediction of compound additivity. Thresholds for meaningful synergy were defined based upon the recommendations of the developers (Prichard and Shipman, 1990).
# Cancer cell lines used in these studies represented cancer types found to be sensitive to Nampt inhibition [e.g. non-Hodgkins lymphoma, multiple myeloma, glioma, non-small cell lung carcinoma (NSCLC), small cell lung carcinoma (SCLC), ovarian cancer and colorectal cancer].
# [2] = system: cell lines (cancer, normal and primary cells); test: NA Rescue assay (cytotoxicity with nicotinic acid added); format: cell-based; settings: fixed dose
# Protocol: Cell lines were treated with a fixed dose of Exemplary Compound A and screened for NA rescue and Naprt1 expression by immunoblotting and quantitative RT-PCR (Table 7). […] The 176 cell lines included 5 normal (non-cancerous) cells and 3 primary cells (italicized in the table), all of which rescued. Naprt1 was quantified by western blotting and q-RT-PCR in 164 and 123 of the 176 cell lines, respectively. […] A statistically significant (p value <0.0001) correlation existed between NA rescue phenotype and Naprt1 protein or mRNA expression levels.
# Additional cancer cell lines were treated with Exemplary Compounds A, C, D, E, F, G and H (identified below) (Table 8). The NA rescue phenotype of a particular cancer cell line was maintained for all Nampt inhibitors tested.
structure (smiles),measurement,setting,value
O=C(NCc1cccnc1)Nc1ccc(COc2ccccc2-c2ccccc2)cc1 [Exemplary Compound A],CC50,"cancer cell lines; A172 cells, glioma, 3 DAY",1.1 nM
same,CC50,"cancer cell lines; COLO205 cells, colon, 3 DAY",0.5 nM
same,CC50,"cancer cell lines; COLO205 cells, colon, 7 DAY",0.3 nM
same,CC50,"cancer cell lines; DB cells, lymphoma, 3 DAY",3.5 nM
same,CC50,"cancer cell lines; DMS-114 cells, SCLC, 3 DAY",0.16 nM
same,CC50,"cancer cell lines; DU145 cells, prostate, 3 DAY",3.9 nM
same,CC50,"cancer cell lines; DU145 cells, prostate, 7 DAY",2.7 nM
same,CC50,"cancer cell lines; DU4475 cells, breast, 3 DAY",0.1 nM
same,CC50,"cancer cell lines; DU4475 cells, breast, 7 DAY",0.1 nM
same,CC50,"cancer cell lines; HCC827 cells, NSCLC, 3 DAY",8 nM
same,CC50,"cancer cell lines; HCC827 cells, NSCLC, 7 DAY",1.5 nM
same,CC50,"cancer cell lines; HCT116 cells, colon, 3 DAY",0.6 nM
same,CC50,"cancer cell lines; HCT116 cells, colon, 7 DAY",0.4 nM
same,CC50,"cancer cell lines; HCT-15 cells, colon, 3 DAY",0.7 nM
same,CC50,"cancer cell lines; HCT-15 cells, colon, 7 DAY",1 nM
same,CC50,"cancer cell lines; HOP92 cells, NSCLC, 3 DAY",17 nM
same,CC50,"cancer cell lines; HOP92 cells, NSCLC, 7 DAY",4.3 nM
same,CC50,"cancer cell lines; HT29 cells, colon, 3 DAY",1.4 nM
same,CC50,"cancer cell lines; HT29 cells, colon, 7 DAY",1.1 nM
same,CC50,"cancer cell lines; HT1080 cells, sarcoma, 3 DAY",1 nM
same,CC50,"cancer cell lines; HT1080 cells, sarcoma, 7 DAY",0.6 nM
same,CC50,"cancer cell lines; KM12 cells, colon, 3 DAY",0.9 nM
same,CC50,"cancer cell lines; KM12 cells, colon, 7 DAY",0.4 nM
same,CC50,"cancer cell lines; MDA-MB-231 cells, breast, 3 DAY",10 nM
same,CC50,"cancer cell lines; MDA-MB-231 cells, breast, 7 DAY",7.5 nM
same,CC50,"cancer cell lines; MIA PaCa-2 cells, pancreatic, 3 DAY",1.8 nM
same,CC50,"cancer cell lines; MIA PaCa-2 cells, pancreatic, 7 DAY",0.4 nM
same,CC50,"cancer cell lines; NCI-H69 cells, SCLC, 3 DAY",1 nM
same,CC50,"cancer cell lines; NCI-H82 cells, SCLC, 3 DAY",1.1 nM
same,CC50,"cancer cell lines; NCI-H460 cells, NSCLC, 3 DAY",15.4 nM
same,CC50,"cancer cell lines; NCI-H522 cells, NSCLC, 3 DAY",1 nM
same,CC50,"cancer cell lines; NCI-H522 cells, NSCLC, 7 DAY",0.4 nM
same,CC50,"cancer cell lines; NCI-H929 cells, myeloma, 3 DAY",2.5 nM
same,CC50,"cancer cell lines; NCI-H1650 cells, NSCLC, 3 DAY",2.5 nM
same,CC50,"cancer cell lines; NCI-N87 cells, gastric, 3 DAY",0.3 nM
same,CC50,"cancer cell lines; NCI-N87 cells, gastric, 7 DAY",0.2 nM
same,CC50,"cancer cell lines; OCI-Ly19 cells, lymphoma, 3 DAY",1.2 nM
same,CC50,"cancer cell lines; OPM-2 cells, myeloma, 3 DAY",1.5 nM
same,CC50,"cancer cell lines; OVCAR3 cells, ovarian, 3 DAY",1.1 nM
same,CC50,"cancer cell lines; OVCAR3 cells, ovarian, 7 DAY",0.4 nM
same,CC50,"cancer cell lines; SF-295 cells, glioma, 3 DAY",1.5 nM
same,CC50,"cancer cell lines; SU-DHL-4 cells, lymphoma, 3 DAY",1.5 nM
same,CC50,"cancer cell lines; SU-DHL-5 cells, lymphoma, 3 DAY",0.9 nM
same,CC50,"cancer cell lines; U-87MG cells, glioma, 3 DAY",23 nM
same,cytotoxicity in combination with 4HC,[1],Synergistic cytotoxicity
same,cytotoxicity in combination with 5-FU,[1],Synergistic cytotoxicity
same,cytotoxicity in combination with temozolomide,[1],Synergistic cytotoxicity
same,NA rescue,"[2]; A549 cells, lung (NSCLC)",yes
same,NA rescue,"[2]; ACHN cells, kidney",yes
same,NA rescue,"[2]; AsPC-1 cells, pancreas",yes
same,NA rescue,"[2]; BEAS-2B cells, lung (normal)",yes
same,NA rescue,"[2]; BT-474 cells, breast",yes
same,NA rescue,"[2]; BxPC-3 cells, pancreas",yes
same,NA rescue,"[2]; CCRF-CEM cells, lymphocytic leukemia",yes
same,NA rescue,"[2]; CFPAC-1 cells, pancreas",yes
same,NA rescue,"[2]; CHLA-90 cells, brain, neuroblastoma",no
same,NA rescue,"[2]; Calu-1 cells, lung (NSCLC)",yes
same,NA rescue,"[2]; Calu-6 cells, lung (NSCLC)",yes
same,NA rescue,"[2]; Capan-1 cells, pancreas",yes
same,NA rescue,"[2]; DBTRG-05MG cells, brain, glioblastoma",yes
same,NA rescue,"[2]; DEL cells, lymphoma",partial
same,NA rescue,"[2]; DU145 cells, prostate",yes
same,NA rescue,"[2]; DU4475 cells, breast",yes
same,NA rescue,"[2]; Daoy cells, brain, medulloblastoma",yes
same,NA rescue,"[2]; Daudi cells, lymphoma",no
same,NA rescue,"[2]; EKVX cells, lung (NSCLC)",yes
same,NA rescue,"[2]; H4 cells, brain, neuroglioma",partial
same,NA rescue,"[2]; H9 cells, lymphoma",no
same,NA rescue,"[2]; HCC78 cells, lung (NSCLC)",no
same,NA rescue,"[2]; HOP18 cells, lung (NSCLC)",yes
same,NA rescue,"[2]; HOP62 cells, lung (NSCLC)",yes
same,NA rescue,"[2]; HOP92 cells, lung (NSCLC)",yes
same,NA rescue,"[2]; HOS cells, osteosarcoma",no
same,NA rescue,"[2]; HepG2 cells, hepatocellular carcinoma",no
same,NA rescue,"[2]; Hs683 cells, brain, glioma",yes
same,NA rescue,"[2]; Hs766T cells, pancreas",yes
same,NA rescue,"[2]; Huh7 cells, hepatocellular carcinoma",yes
same,NA rescue,"[2]; IMR-32 cells, brain, neuroblastoma",no
same,NA rescue,"[2]; IMR-90 cells, lung (normal)",yes
same,NA rescue,"[2]; JJN3 cells, myeloma (plasma cell leukemia)",yes
same,NA rescue,"[2]; Jurkat cells, lymphocytic leukemia",yes
same,NA rescue,"[2]; KARPAS-299 cells, lymphocytic leukemia",no
same,NA rescue,"[2]; KELLY cells, brain, oligodendroglioma",no
same,NA rescue,"[2]; KNS-42 cells, brain, glioma",no
same,NA rescue,"[2]; L-82 cells, lymphoma",yes
same,NA rescue,"[2]; LA-N-6 cells, brain, neuroblastoma",yes
same,NA rescue,"[2]; LNCAP cells, prostate",yes
same,NA rescue,"[2]; M059J cells, brain, malignant glioblastoma, glioma",no
same,NA rescue,"[2]; MALME-3 cells, skin (normal)",yes
same,NA rescue,"[2]; MG-63 cells, osteosarcoma",no
same,NA rescue,"[2]; MM.1S cells, myeloma",yes
same,NA rescue,"[2]; MOLP-8 cells, myeloma",partial
same,NA rescue,"[2]; MOLT4 cells, lymphocytic leukemia",yes
same,NA rescue,"[2]; MONO-MAC-6 cells, lymphocytic leukemia",partial
same,NA rescue,"[2]; MRC-5 cells, lung (normal)",yes
same,NA rescue,"[2]; NAMALWA cells, lymphoma",no
same,NA rescue,"[2]; NCI-H23 cells, lung (NSCLC)",yes
same,NA rescue,"[2]; NCI-H69 cells, lung (small cell)",no
same,NA rescue,"[2]; NCI-H146 cells, lung (small cell)",yes
same,NA rescue,"[2]; NCI-H209 cells, lung (small cell)",yes
same,NA rescue,"[2]; NCI-H226 cells, lung (NSCLC)",yes
same,NA rescue,"[2]; NCI-H322 cells, lung (NSCLC)",no
same,NA rescue,"[2]; NCI-H345 cells, lung (small cell)",yes
same,NA rescue,"[2]; NCI-H441 cells, lung (NSCLC)",yes
same,NA rescue,"[2]; NCI-H596 cells, lung (NSCLC)",partial
same,NA rescue,"[2]; NCI-H1299 cells, lung (NSCLC)",yes
same,NA rescue,"[2]; NCI-H1437 cells, lung (NSCLC)",yes
same,NA rescue,"[2]; NCI-H1568 cells, lung (NSCLC)",yes
same,NA rescue,"[2]; NCI-H1792 cells, lung (NSCLC)",yes
same,NA rescue,"[2]; NCI-H1944 cells, lung (NSCLC)",yes
same,NA rescue,"[2]; NCI-H1993 cells, lung (NSCLC)",yes
same,NA rescue,"[2]; OVCAR-3 cells, ovary",yes
same,NA rescue,"[2]; PBMC, primary blood",yes
same,NA rescue,"[2]; PFSK-1 cells, brain, malignant neuroectodermal tumor",partial
same,NA rescue,"[2]; Panc-1 cells, pancreas",yes
same,NA rescue,"[2]; RPMI-8226 cells, myeloma",partial
same,NA rescue,"[2]; Ramos cells, lymphoma",yes
same,NA rescue,"[2]; SAEC, primary lung",yes
same,NA rescue,"[2]; SF-268 cells, brain, astrocytoma, anaplastic",no
same,NA rescue,"[2]; SF-539 cells, brain, gliosarcoma",yes
same,NA rescue,"[2]; SH-SY5Y cells, brain, neuroblastoma, bone marrow met.",no
same,NA rescue,"[2]; SHP-77 cells, lung (small cell)",yes
same,NA rescue,"[2]; SJSA1 cells, osteosarcoma",yes
same,NA rescue,"[2]; SK-ES-1 cells, osteosarcoma",yes
same,NA rescue,"[2]; SK-N-FI cells, brain, neuroblastoma, bone marrow met.",no
same,NA rescue,"[2]; SK-N-MC cells, brain, neuroepithelioma, supra-orbital met.",no
same,NA rescue,"[2]; SK-N-SH cells, brain, neuroblastoma, metastatic",no
same,NA rescue,"[2]; SMS-KCNR cells, brain, neuroblastoma, ALK (R1275Q).",yes
same,NA rescue,"[2]; SNB-19 cells, brain, glioblastoma",no
same,NA rescue,"[2]; SNU182 cells, hepatocellular carcinoma",yes
same,NA rescue,"[2]; SNU449 cells, hepatocellular carcinoma",yes
same,NA rescue,"[2]; SR-786 cells, lymphoma",no
same,NA rescue,"[2]; SU-DHL-1 cells, lymphoma",no
same,NA rescue,"[2]; SU-DHL-10 cells, lymphoma",yes
same,NA rescue,"[2]; SW1088 cells, brain, astrocytoma",yes
same,NA rescue,"[2]; SW1783 cells, brain, astrocytoma",yes
same,NA rescue,"[2]; Saos-2 cells, osteosarcoma",yes
same,NA rescue,"[2]; T24 cells, bladder",yes
same,NA rescue,"[2]; THP-1 cells, lymphocytic leukemia",yes
same,NA rescue,"[2]; U251 cells, brain, glioblastoma",no
same,NA rescue,"[2]; U-2 OS cells, osteosarcoma",no
same,NA rescue,"[2]; U-937 cells, lymphoma",yes
same,NA rescue,"[2]; UWB1.289 cells, ovary",yes
same,NA rescue,"[2]; Wi-38 cells, lung (normal)",yes
same,cell lines that completely rescued with NA,[2]; of 176 cell lines tested,113
same,cell lines that did not rescue with NA,[2]; of 176 cell lines tested,47
same,cell lines that partially rescued with NA,[2]; of 176 cell lines tested,16
same,NA rescue,"[2]; keratinocytes, primary skin",yes
same,NA rescue,"[2]; no. 10 cells, brain, glioma, anaplastic",no
same,NA rescue,"[2]; no. 11 cells, brain, glioma, anaplastic",partial
